The text below walks through data of publication PMC7039932, “Development of Relaxin-3 Agonists and Antagonists Based on Grafted Disulfide-Stabilized Scaffolds” (Frontiers in Chemistry, 2020).

For orientation: Ki means a dissociation constant, usually derived from enzyme kinetics or from competition with a known ligand. A low value points to a stronger hold on the target.

One data set is described as follows: In vitro serum stability. The class given is in vitro ADME, human. The note with it: for half-life at 2.5 µg/mL: human male pooled serum, 570 μl spiked with 30 μl peptide stock (0.05 μg/μl in H2O), quenched with 0.1 M ammonium acetate pH 3, SPE, LC-MS MRM, one phase decay, at least three replicates, read-out: Half-life in serum (T1/2) (converted). On the procedure:
The in vitro serum stability was determined by peptide spiking, as previously described (Hossain et al., [2015]). Briefly, 570 μl human male pooled serum was spiked with 30 μl peptide stock solution (0.05 μg/μl in H2O). 100 μl samples were taken out at different time points and quenched with 900 μl ammonium acetate (0.1 M, pH 3). Samples were left on ice for 30 min before being extracted using solid phase extraction cartridges (Oasis HLB 3cc, Waters). Eluted samples were then lyophilized and reconstituted in 1% formic acid. The amount of intact peptide is reported relative to the amount of peptide available at timepoint 0 hr. Quantification was carried out using multiple reaction monitoring on a triple-quad LC-MS (API2000, AB Sciex) and the data analyzed using one phase decay in Prism 7.

The target of data set [1] is T1, RXFP3 (Homo sapiens, UniProt Q9NSD7).
T1 construct: expressed in transfected cells; host or cells: CHO-K1 cells stably expressing RXFP3
T1 sequence (Q9NSD7 1-469): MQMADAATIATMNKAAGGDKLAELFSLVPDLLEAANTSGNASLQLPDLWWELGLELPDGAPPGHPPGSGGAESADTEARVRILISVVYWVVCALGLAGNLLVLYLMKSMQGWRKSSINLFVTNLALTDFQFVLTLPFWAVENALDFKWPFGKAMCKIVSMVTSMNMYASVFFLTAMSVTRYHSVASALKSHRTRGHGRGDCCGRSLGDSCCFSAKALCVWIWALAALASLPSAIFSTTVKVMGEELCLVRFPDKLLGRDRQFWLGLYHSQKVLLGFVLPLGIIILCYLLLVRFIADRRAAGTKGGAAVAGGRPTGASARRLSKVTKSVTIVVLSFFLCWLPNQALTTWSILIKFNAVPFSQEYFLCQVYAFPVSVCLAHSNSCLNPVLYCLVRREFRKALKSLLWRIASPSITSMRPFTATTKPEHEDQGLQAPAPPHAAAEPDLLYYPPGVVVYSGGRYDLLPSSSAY
Put plainly: Inhibition of forskolin-induced cAMP accumulation, pCRE-β-galactosidase reporter, CHO-K1 cells stably expressing RXFP3. The class given is cell-based. Particulars: CHO-K1-RXFP3 cells with pCRE-β-galactosidase reporter; 5 μM forskolin; mean ± SEM, number in parentheses = independent experiments in triplicate. The method, then: The affinity and activity of the grafted peptides were determined as previously described (Haugaard-Kedström et al., [2015]). Briefly, for competition binding studies CHO-K1 cells stably expressing RXFP3 were incubated with 5 nM Eu-DTPA-R3 B1-22R and increasing concentrations of peptide analogs. Unlabeled R3 B1-22R was used as reference compound. The europium was detected by the addition of enhancement solution and fluorescence recorded using an excitation of 340 nm and emission reading at 614 nm. For agonists the ability of analogs to inhibit cAMP accumulation were tested in CHO-K1 cells stably expressing RXFP3 transfected with a pCRE-β-galactosidase reporter plasmid. Cells were stimulated with 5 μM forskolin and incubated with increasing concentrations of relaxin-3 analogs as previously described (Shabanpoor et al., [2012]). […] Data are expressed as mean ± SEM and analyzed using Prism 8 (GraphPad).
The binding affinity of the grafted peptides were determined using CHO cells stably expressing RXFP3 by measuring increasing concentrations of the grafted peptides' ability to compete for the binding site with europium labeled R3 B1-22R (Haugaard-Kedström et al., [2015]). Activation was measured by assessing the ability of the analogs to inhibit cAMP accumulation induced by forskolin in a reporter assay, as RXFP3 couples to an inhibitory G-protein.
For orientation: Changes in cAMP serve as a functional read-out for many G protein-coupled receptors.

Data set [2] addresses T2, RXFP3 (Homo sapiens, UniProt Q9NSD7).
T2 chain: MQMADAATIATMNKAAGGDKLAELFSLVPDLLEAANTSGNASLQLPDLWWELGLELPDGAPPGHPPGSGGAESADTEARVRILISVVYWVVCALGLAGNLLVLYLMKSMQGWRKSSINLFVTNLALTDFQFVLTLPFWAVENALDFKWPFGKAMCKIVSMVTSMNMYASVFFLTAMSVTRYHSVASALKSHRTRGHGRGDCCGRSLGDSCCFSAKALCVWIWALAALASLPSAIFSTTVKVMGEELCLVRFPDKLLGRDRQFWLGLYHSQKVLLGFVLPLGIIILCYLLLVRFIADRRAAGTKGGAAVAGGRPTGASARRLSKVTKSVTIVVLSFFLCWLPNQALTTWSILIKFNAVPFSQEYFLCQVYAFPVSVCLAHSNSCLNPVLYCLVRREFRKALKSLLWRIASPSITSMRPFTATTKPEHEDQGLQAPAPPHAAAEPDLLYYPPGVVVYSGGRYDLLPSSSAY
The data set is described as follows: competition binding with Eu-R3 B1-22R on CHO-K1 cells.

Where a SMILES comes first, the peptide text is derived from it. Bridges are numbered along the chain shown (N, C = ends). Where no end group is shown, it is not given here.

Regarding `CC[C@H](C)[C@H](NC(=O)[C@H](Cc1ccccc1)NC(=O)[C@H](CCC(=O)O)NC(=O)[C@H](CCCNC(=N)N)NC(=O)CNC(=O)[C@H](CS)NC(=O)[C@H](CC(C)C)NC(=O)[C@H](CCCNC(=N)N)NC(=O)[C@@H](NC(=O)CNC(=O)[C@H](Cc1ccc(O)cc1)NC(=O)[C@@H]1CCCN1C(=O)[C@H](C)NC(=O)[C@H](C)NC(=O)[C@@H](N)CCCNC(=N)N)C(C)C)C(=O)N[C@@H](CCCNC(=N)N)C(=O)N[C@@H](C)C(=O)N[C@H](C(=O)N[C@H](C(=O)N[C@@H](Cc1ccccc1)C(=O)N[C@H](C(=O)N[C@@H](CS)C(=O)NCC(=O)NCC(=O)N[C@@H](CO)C(=O)N[C@@H](CCCNC(=N)N)C(=O)N[C@@H](Cc1c[nH]c2ccccc12)C(=O)O)[C@@H](C)O)[C@@H](C)CC)C(C)C` [Analog 2, reference compound], the half-life at 2.5 µg/mL in the data set “In vitro serum stability” is 0.0517 h.

Consider `CC[C@H](C)[C@@H]1NC(=O)[C@H](C)NC(=O)[C@@H]2CSSC[C@H](N)C(=O)N[C@@H](CC(N)=O)C(=O)N[C@@H](CSSC[C@@H](C(=O)N[C@H](C(=O)N[C@H](C(=O)N[C@@H](Cc3ccccc3)C(=O)N[C@H](C(=O)N[C@@H](CO)C(=O)NCC(=O)NCC(=O)N[C@@H](CO)C(=O)N[C@@H](CCCNC(=N)N)C(=O)N[C@@H](Cc3c[nH]c4ccccc34)C(=O)O)[C@@H](C)O)[C@@H](C)CC)C(C)C)NC(=O)[C@H](CCCNC(=N)N)NC1=O)C(=O)N[C@@H](CCCCN)C(=O)N[C@@H](C)C(=O)N1CCC[C@H]1C(=O)N[C@@H](CCC(=O)O)C(=O)N[C@@H]([C@@H](C)O)C(=O)N[C@@H](C)C(=O)N[C@@H](CCCNC(=N)N)C(=O)N2` [Analog 3] (H-CNCKAPETARCAIRCVIFTSGGSRW-OH; disulfide 1-11, 3-15), for which the half-life at 2.5 µg/mL in the data set “In vitro serum stability” is 12.8 h. Also, the “Fold improvement in serum stability versus linear counterpart” value in “In vitro serum stability” (human serum T1/2 of grafted peptide relative to linear R3 B1-27 or R3 B1-22R) was determined as 250 fold.

For `CC[C@H](C)[C@@H]1NC(=O)[C@H](C)NC(=O)[C@@H]2CSSC[C@H](N)C(=O)N[C@@H](CC(N)=O)C(=O)N[C@@H](CSSC[C@@H](C(=O)N[C@H](C(=O)N[C@H](C(=O)N[C@@H](Cc3ccccc3)C(=O)N[C@H](C(=O)N[C@@H](CO)C(=O)N[C@@H](CCCNC(=N)N)C(N)=O)[C@@H](C)O)[C@@H](C)CC)C(C)C)NC(=O)[C@H](CCCNC(=N)N)NC1=O)C(=O)N[C@@H](CCCCN)C(=O)N[C@@H](C)C(=O)N1CCC[C@H]1C(=O)N[C@@H](CCC(=O)O)C(=O)N[C@@H]([C@@H](C)O)C(=O)N[C@@H](C)C(=O)N[C@@H](CCCNC(=N)N)C(=O)N2` [Analog 9] (H-CNCKAPETARCAIRCVIFTSR-NH2; disulfide 1-11, 3-15), the “cAMP activity pEC50 ± SEM” value at RXFP3 [1] was “No activity”. The half-life at 2.5 µg/mL in the data set “In vitro serum stability” was 6.6 h.

“RAAPYGVRLSGREFIRAVIFTSR-NH2 [Analog 8, reference compound]”: the half-life at 2.5 µg/mL in the data set “In vitro serum stability” is 0.0667 h.

Regarding RAAPYGVRLSGREFIRAVIFTSR-NH2 [Analog 8], the “cAMP activity pEC50 ± SEM” value on RXFP3 [1] was “No activity”.

B1: relaxin-3 (R3 acid, analog 1) (protein)
chain 1: RAAPYGVRLCGREFIRAVIFTCGGSRW
chain 2: DVLAGLSSSCCKWGCSKSEISSLC
The molecule B1 gave a Ki with RXFP3 [2] of 0.0204 µM.

B2: relaxin-3 B-chain (R3 B1-27, analog 2) B-chain 1-27 (peptide)
chain: MARYMLLLLLAVWVLTGELWPGAEARA
In the case of B2, the inhibitory constant (Ki) with RXFP3 [2] worked out at 1.23 µM.
